Data on two compounds can be found in patent US11110105B2, “Compounds, composition and uses thereof for treating cancer” (INSTITUT GUSTAVE ROUSSY, priority 2017, dated 2021).

Molecules are shown by their SMILES.

Data set [1] addresses spliceosome (SF3B1) (Homo sapiens, UniProt O75533+Q7RTV0). The settings on record: in vivo; cited from earlier work.
Data set [2] in a line: Water solubility. The data set is classed as physicochemical.

spliceosome (SF3B1), sequence (Q7RTV0 whole entry, canonical isoform): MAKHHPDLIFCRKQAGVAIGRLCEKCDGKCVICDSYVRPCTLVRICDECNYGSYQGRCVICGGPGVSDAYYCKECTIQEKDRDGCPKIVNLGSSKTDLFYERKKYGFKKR
spliceosome (SF3B1), sequence (Q15393 whole entry, further chain, canonical isoform): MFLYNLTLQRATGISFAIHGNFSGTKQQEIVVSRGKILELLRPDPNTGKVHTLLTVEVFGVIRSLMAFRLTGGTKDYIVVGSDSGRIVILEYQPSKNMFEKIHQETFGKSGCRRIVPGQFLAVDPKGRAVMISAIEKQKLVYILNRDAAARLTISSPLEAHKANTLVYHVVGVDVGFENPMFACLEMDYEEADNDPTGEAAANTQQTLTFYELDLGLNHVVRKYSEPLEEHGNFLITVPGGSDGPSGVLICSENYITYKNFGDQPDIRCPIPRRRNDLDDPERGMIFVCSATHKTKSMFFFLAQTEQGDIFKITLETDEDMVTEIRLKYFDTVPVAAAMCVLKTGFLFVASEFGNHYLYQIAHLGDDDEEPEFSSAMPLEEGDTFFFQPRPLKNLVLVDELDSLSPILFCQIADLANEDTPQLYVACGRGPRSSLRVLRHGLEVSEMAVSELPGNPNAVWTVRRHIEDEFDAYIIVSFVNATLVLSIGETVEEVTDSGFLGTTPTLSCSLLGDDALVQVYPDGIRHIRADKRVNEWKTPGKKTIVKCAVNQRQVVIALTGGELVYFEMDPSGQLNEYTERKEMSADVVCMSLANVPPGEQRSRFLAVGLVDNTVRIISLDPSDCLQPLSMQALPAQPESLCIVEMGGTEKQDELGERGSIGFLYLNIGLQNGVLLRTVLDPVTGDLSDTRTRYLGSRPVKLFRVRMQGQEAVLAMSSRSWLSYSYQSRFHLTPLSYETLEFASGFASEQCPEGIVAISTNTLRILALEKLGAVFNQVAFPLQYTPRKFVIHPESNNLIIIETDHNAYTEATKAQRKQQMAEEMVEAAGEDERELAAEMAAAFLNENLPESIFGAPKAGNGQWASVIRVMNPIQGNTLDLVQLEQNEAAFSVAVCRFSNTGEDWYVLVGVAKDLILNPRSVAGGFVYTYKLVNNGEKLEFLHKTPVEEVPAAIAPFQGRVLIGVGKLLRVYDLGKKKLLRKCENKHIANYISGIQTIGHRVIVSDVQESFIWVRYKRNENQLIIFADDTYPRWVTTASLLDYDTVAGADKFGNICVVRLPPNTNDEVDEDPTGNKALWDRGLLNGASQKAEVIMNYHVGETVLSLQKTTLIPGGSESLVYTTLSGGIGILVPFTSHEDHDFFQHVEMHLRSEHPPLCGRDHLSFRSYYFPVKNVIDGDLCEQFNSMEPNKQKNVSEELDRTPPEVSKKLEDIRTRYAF
spliceosome (SF3B1), sequence (Q9BWJ5 whole entry, further chain, canonical isoform): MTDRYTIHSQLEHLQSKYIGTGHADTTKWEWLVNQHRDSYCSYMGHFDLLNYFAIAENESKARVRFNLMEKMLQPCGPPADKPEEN
spliceosome (SF3B1), sequence (O75533 whole entry, canonical isoform): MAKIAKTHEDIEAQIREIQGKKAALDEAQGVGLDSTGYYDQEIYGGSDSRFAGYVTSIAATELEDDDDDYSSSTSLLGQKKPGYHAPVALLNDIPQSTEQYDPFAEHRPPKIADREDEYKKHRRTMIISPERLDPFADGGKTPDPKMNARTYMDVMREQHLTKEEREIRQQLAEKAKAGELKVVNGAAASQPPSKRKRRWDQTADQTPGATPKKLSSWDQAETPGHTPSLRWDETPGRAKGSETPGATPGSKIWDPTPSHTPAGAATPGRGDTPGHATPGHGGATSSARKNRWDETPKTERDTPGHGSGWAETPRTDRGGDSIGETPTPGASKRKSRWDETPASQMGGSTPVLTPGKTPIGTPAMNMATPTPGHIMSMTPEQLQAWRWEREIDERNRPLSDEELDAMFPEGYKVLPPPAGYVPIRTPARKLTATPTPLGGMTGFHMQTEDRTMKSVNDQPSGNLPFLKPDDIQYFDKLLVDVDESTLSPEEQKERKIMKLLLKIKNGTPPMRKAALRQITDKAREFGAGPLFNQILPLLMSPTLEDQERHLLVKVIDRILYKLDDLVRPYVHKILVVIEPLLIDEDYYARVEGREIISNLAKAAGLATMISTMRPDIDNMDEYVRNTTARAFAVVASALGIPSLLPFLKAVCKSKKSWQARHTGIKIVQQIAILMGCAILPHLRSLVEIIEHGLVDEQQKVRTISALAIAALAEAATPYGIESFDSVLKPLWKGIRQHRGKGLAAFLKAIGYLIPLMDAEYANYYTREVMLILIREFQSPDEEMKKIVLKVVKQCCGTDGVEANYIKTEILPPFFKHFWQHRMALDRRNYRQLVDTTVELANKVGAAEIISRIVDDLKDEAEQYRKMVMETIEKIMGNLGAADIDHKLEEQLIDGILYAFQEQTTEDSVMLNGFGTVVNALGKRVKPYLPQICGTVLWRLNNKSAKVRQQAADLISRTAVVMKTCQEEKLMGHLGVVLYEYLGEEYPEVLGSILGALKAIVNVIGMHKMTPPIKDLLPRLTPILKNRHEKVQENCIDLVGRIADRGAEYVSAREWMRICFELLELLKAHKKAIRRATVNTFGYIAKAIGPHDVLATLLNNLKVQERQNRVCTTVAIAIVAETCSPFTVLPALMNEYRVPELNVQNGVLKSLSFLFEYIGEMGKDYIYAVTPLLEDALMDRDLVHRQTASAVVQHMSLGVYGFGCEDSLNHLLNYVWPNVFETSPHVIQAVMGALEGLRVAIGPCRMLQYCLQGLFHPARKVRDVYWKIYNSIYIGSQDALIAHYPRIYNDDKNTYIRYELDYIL

For `CC[C@H](O)[C@@H](C)[C@H]1O[C@@H]1C[C@@](C)(O)/C=C/C=C(\C)[C@H]1OC(=O)C[C@H](O)CC[C@@](C)(O)[C@@H](OC(=O)N2CCN(C3CCCCCC3)CC2)/C=C/[C@@H]1C` [E7107], the “outcome of testing in human” value in data set [1] is “stopped because of problems of toxicity”.
Consider `COc1ccc(-c2cc(=O)c3c([O-])cc(OP(=O)(O)O)c(-c4cc(-c5cc(=O)c6c([O-])cc(OP(=O)(O)O)cc6o5)ccc4OC)c3o2)cc1.[Na+].[Na+]` [Compound 2], for which the water solubility entry in data set [2] is “considerably higher than that of the parent compound isoginkgetin”.
